Measured values published in ChEMBL document CHEMBL1201862, “PubChem BioAssay data set” (2004).
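96-well plates; 48 h exposure; 5 concentrations. Endpoints by linear interpolation between flanking doses. Not reached: highest tested concentration assigned. GI50 marks 50% less growth.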 The source made the active and inactive calls. Cut-off read from the data, not from the text of the source: active = GI50 up to about 1.1 µM and inactive = higher. Where a SMILES comes first, the peptide text is derived from it. The star is where a group is joined. Boc = CC(C)(C)OC(=O)*

Assays:
Assay in all cases: growth of human tumour cells (NCI), 48 h
A498 = system: A498
CAKI-1 = system: CAKI-1
DU-145 = system: DU-145
HOP-62 = system: HOP-62
Hs-578T = system: Hs-578T
MCF7 = system: MCF7
MDA-N = system: MDA-N
MOLT-4 = system: MOLT-4
NCI-H23 = system: NCI-H23
NCI-H460 = system: NCI-H460
OVCAR-4 = system: OVCAR-4
OVCAR-8 = system: OVCAR-8
PC-3 = system: PC-3
SF-268 = system: SF-268
SF-539 = system: SF-539
SK-MEL-28 = system: SK-MEL-28
SK-MEL-2 = system: SK-MEL-2
SR = system: SR
U-251 = system: U-251
LOX IMVI = system: LOX IMVI

Row | Structure (SMILES) | GI50 (A498) | GI50 (CAKI-1) | GI50 (DU-145) | GI50 (HOP-62) | GI50 (Hs-578T) | GI50 (MCF7) | GI50 (MDA-N) | GI50 (MOLT-4) | GI50 (NCI-H23) | GI50 (NCI-H460) | GI50 (OVCAR-4) | GI50 (OVCAR-8) | GI50 (PC-3) | GI50 (SF-268) | GI50 (SF-539) | GI50 (SK-MEL-28) | GI50 (SK-MEL-2) | GI50 (SR) | GI50 (U-251) | GI50 (LOX IMVI)
1 | COc1ccc(C2SCC(=O)N2NC2=NC(=O)CC(=O)N2)cc1 (configuration not stated) | > 100 µM (inactive) | > 100 µM (inactive) | > 100 µM (inactive) | > 100 µM (inactive) | > 100 µM (inactive) | > 100 µM (inactive) | > 100 µM (inactive) | > 100 µM (inactive) | > 100 µM (inactive) | > 100 µM (inactive) | > 100 µM (inactive) | > 100 µM (inactive) | > 100 µM (inactive) | > 100 µM (inactive) | > 100 µM (inactive) | > 100 µM (inactive) | > 100 µM (inactive) | > 100 µM (inactive) | > 100 µM (inactive) | 
2 | C\C(=N/N=C1/C(=C\N(C)C)C(=O)NC(=O)N1C)c1ccc(Cl)cc1 | > 100 µM (inactive) | 76.4 µM (inactive) | > 100 µM (inactive) | > 100 µM (inactive) | > 100 µM (inactive) | > 100 µM (inactive) | > 100 µM (inactive) | > 100 µM (inactive) | > 100 µM (inactive) | > 100 µM (inactive) | > 100 µM (inactive) | > 100 µM (inactive) | 72.1 µM (inactive) | > 100 µM (inactive) | > 100 µM (inactive) | > 100 µM (inactive) | 57.9 µM (inactive) |  | > 100 µM (inactive) | 58.2 µM (inactive)
3 | CN(C)c1n/c(=N/Cc2ccccc2)ss1 | > 10 µM (inactive) | > 10 µM (inactive) | > 10 µM (inactive) | > 10 µM (inactive) | > 10 µM (inactive) | > 10 µM (inactive) | > 10 µM (inactive) | 1.81 µM (inactive) | > 10 µM (inactive) | > 10 µM (inactive) | > 10 µM (inactive) | > 10 µM (inactive) | > 10 µM (inactive) | > 10 µM (inactive) | > 10 µM (inactive) | > 10 µM (inactive) |  | 0.587 µM (active) | > 10 µM (inactive) | > 5.77 µM (inactive)
4 | N=c1c2c(=S)n(-c3ccccc3)c(=S)n(-c3ccccc3)c2nc(SCCN2CCCC2)n1-c1ccccc1 | 11 µM (inactive) | 1.56 µM (inactive) | 1.76 µM (inactive) | 3.4 µM (inactive) | 3.9 µM (inactive) |  | 2.05 µM (inactive) | 0.08 µM (active) | 2.9 µM (inactive) | 1.72 µM (inactive) | 3 µM (inactive) | 2.01 µM (inactive) | 1.75 µM (inactive) | 2.7 µM (inactive) | 5.02 µM (inactive) | 3.69 µM (inactive) | 5.94 µM (inactive) | 0.136 µM (active) | 2.52 µM (inactive) | 1.63 µM (inactive)
5 | C=CCNC(=S)N/N=C1\C(=O)N(CN2CCOCC2)c2ccc([N+](=O)[O-])cc21 | 7.52 µM (inactive) | 5.19 µM (inactive) | 18.7 µM (inactive) | 20.6 µM (inactive) | > 100 µM (inactive) | 33.3 µM (inactive) | 30.8 µM (inactive) | 5.98 µM (inactive) | 44.9 µM (inactive) | 4.16 µM (inactive) | 22.7 µM (inactive) | 12.7 µM (inactive) | 24 µM (inactive) | 58.6 µM (inactive) | 51.6 µM (inactive) | > 100 µM (inactive) | > 100 µM (inactive) |  | 18.1 µM (inactive) | 32.3 µM (inactive)
6 | CCOC(=O)CC(=O)Nc1cccc2nc[nH]c12 | > 100 µM (inactive) | > 100 µM (inactive) | > 100 µM (inactive) | > 100 µM (inactive) | 0.267 µM (active) | > 100 µM (inactive) | > 100 µM (inactive) | > 100 µM (inactive) | > 100 µM (inactive) | > 100 µM (inactive) | > 100 µM (inactive) | > 100 µM (inactive) | > 100 µM (inactive) | 98.2 µM (inactive) | > 100 µM (inactive) | > 100 µM (inactive) | > 100 µM (inactive) | > 100 µM (inactive) | > 100 µM (inactive) | 
7 | C/C(=N\Nc1nc2ccccc2s1)c1cccnn1 |  | 1.04 µM (active) | 1.92 µM (inactive) | 1.63 µM (inactive) | 12.1 µM (inactive) | 2.75 µM (inactive) | 8.63 µM (inactive) | 3.91 µM (inactive) | 2.61 µM (inactive) | 2.65 µM (inactive) | 76 µM (inactive) | 1.66 µM (inactive) | 1.79 µM (inactive) | 1.56 µM (inactive) | 3.55 µM (inactive) | 4.56 µM (inactive) | 3.05 µM (inactive) | 0.476 µM (active) | 3.68 µM (inactive) | 
8 | CCC1=NC(N/N=C/c2ccccc2O)=N/C1=C\c1ccccc1O | 26.7 µM (inactive) | 19.6 µM (inactive) | 18.2 µM (inactive) | 8.55 µM (inactive) | 23.9 µM (inactive) | 5.52 µM (inactive) | 17 µM (inactive) | 6.56 µM (inactive) | 14.4 µM (inactive) | 2.57 µM (inactive) | 5.6 µM (inactive) | 8.57 µM (inactive) | 15.5 µM (inactive) | 4.98 µM (inactive) |  | 23.7 µM (inactive) | 12.6 µM (inactive) | 27.9 µM (inactive) | 19.3 µM (inactive) | 5.61 µM (inactive)
9 | CCN1C(=O)/C(=C/Nc2ccccc2)S/C1=N/Nc1nc(-c2ccc(O)c(O)c2)cs1 |  | 31.8 µM (inactive) | 5.64 µM (inactive) | 6.22 µM (inactive) | 96.2 µM (inactive) | 4 µM (inactive) | 1.71 µM (inactive) | 5.53 µM (inactive) | 7.18 µM (inactive) | 35.2 µM (inactive) | 40.8 µM (inactive) | 5.07 µM (inactive) | 33.9 µM (inactive) | 23.4 µM (inactive) | 2.07 µM (inactive) | 7.59 µM (inactive) | 4.31 µM (inactive) | 2.7 µM (inactive) | 6.56 µM (inactive) | 6.08 µM (inactive)
10 | COC(=O)C(C)NC(=O)C(CCSC)NC(=O)C(Cc1ccccc1)NC(=O)OC(C)(C)C (stereo not drawn) (Boc-Phe-Met-Ala-OMe; configuration not given here) |  | > 100 µM (inactive) | > 100 µM (inactive) | > 100 µM (inactive) | > 100 µM (inactive) | > 100 µM (inactive) | > 100 µM (inactive) | > 100 µM (inactive) | > 100 µM (inactive) | > 100 µM (inactive) | > 100 µM (inactive) | > 100 µM (inactive) | > 100 µM (inactive) | > 100 µM (inactive) | > 100 µM (inactive) | > 100 µM (inactive) | > 100 µM (inactive) | > 100 µM (inactive) | > 100 µM (inactive) | > 100 µM (inactive)
11 | COc1cc(C(=O)Nc2c3ccccc3nc3ccccc23)cc(OC)c1OC |  | > 22.1 µM (inactive) | > 100 µM (inactive) | > 36.3 µM (inactive) | > 100 µM (inactive) | > 100 µM (inactive) | 30 µM (inactive) | 23.2 µM (inactive) | > 100 µM (inactive) | > 70.8 µM (inactive) | > 100 µM (inactive) | > 59.7 µM (inactive) | > 100 µM (inactive) | 28.9 µM (inactive) | > 100 µM (inactive) | > 100 µM (inactive) | > 100 µM (inactive) |  | > 100 µM (inactive) | > 100 µM (inactive)
12 | CCCCCc1cc2c(cc1O)CC[C@@H]1[C@@H]2CC[C@]2(C)[C@@H](O)CC[C@@H]12 | 21.4 µM (inactive) | 21.5 µM (inactive) | 16.4 µM (inactive) | 22.4 µM (inactive) | 19.8 µM (inactive) | 16.4 µM (inactive) | 17.9 µM (inactive) | 24.3 µM (inactive) | 21.3 µM (inactive) | 17.4 µM (inactive) | 21.6 µM (inactive) | 20.1 µM (inactive) | 16.6 µM (inactive) | 17.7 µM (inactive) | 23.8 µM (inactive) | 16.2 µM (inactive) | 23.3 µM (inactive) |  | 17.6 µM (inactive) | 18.2 µM (inactive)
13 | COc1ccc(C(C#N)NC23CC4CC(CC(C4)C2)C3)cc1OC (configuration not stated) |  | > 100 µM (inactive) | > 100 µM (inactive) | > 100 µM (inactive) | > 100 µM (inactive) | > 100 µM (inactive) | > 100 µM (inactive) | > 100 µM (inactive) | > 100 µM (inactive) | > 100 µM (inactive) | > 100 µM (inactive) | > 100 µM (inactive) | > 100 µM (inactive) | > 100 µM (inactive) | > 100 µM (inactive) | > 100 µM (inactive) | > 100 µM (inactive) | > 100 µM (inactive) | > 100 µM (inactive) | > 100 µM (inactive)
14 | COC1CC(OC2C(C)OC(OC3C(C)OC(OC4C(C)OC(O[C@H]5CC[C@@]6(C)C(=CC[C@]7(O)[C@@H]6C[C@@H](OC(=O)/C=C(\C)C(C)C)[C@@]6(C)[C@]7(O)CC[C@@]6(O)C(C)=O)C5)CC4OC)CC3OC)CC2OC)OC(C)C1O (some centres not stated) |  | > 12.5 µM (inactive) | > 12.5 µM (inactive) | > 12.5 µM (inactive) | > 12.5 µM (inactive) | > 12.5 µM (inactive) | > 12.5 µM (inactive) | > 12.5 µM (inactive) | > 12.5 µM (inactive) |  | > 12.5 µM (inactive) | > 12.5 µM (inactive) | > 12.5 µM (inactive) | > 12.5 µM (inactive) | > 12.5 µM (inactive) |  | > 12.5 µM (inactive) | > 12.5 µM (inactive) | > 12.5 µM (inactive) | > 12.5 µM (inactive)
